One test concerns T1, PsAOMT.
T1 construct: gene AOMT; dimer in solution; Leu-87; differs from PtAOMT at positions 13 (E), 85 (A), 87 (L), 205 (R)
As to the kind of experiment: HPLC of methylated product. In kind it is biochemical, Paeonia suffruticosa. Particulars: 200 μM SAM, 1.0 mM MgCl2, 14 mM β-mercaptoethanol, 100 mM Tris/HCl pH 7.5, 35 °C; MBP fusion; read-out: PsAOMT / K m. From the text:
HPLC of methylated product on PsAOMT

For a further test, the system named is T2, PtAOMT.
T2 construct: gene AOMT; dimer in solution; Arg-87; Gly-13, Thr-85, Thr-205
Kind of test: HPLC of methylated product. It is filed as biochemical, Paeonia tenuifolia. To be noted: 200 μM SAM, 1.0 mM MgCl2, 14 mM β-mercaptoethanol, 100 mM Tris/HCl pH 7.5, 35 °C; MBP fusion. An excerpt: HPLC of methylated product on PtAOMT | K m of PtAOMT-R87L for Cy3G was slightly lower than its K m for Cy3G5G

Data on 6 molecules can be found in PMC4623676, “Methylation mediated by an anthocyanin, O-methyltransferase, is involved in purple flower coloration in Paeonia” (Journal of Experimental Botany, 2015).

Consider `O=c1c(O)c(-c2ccc(O)c(O)c2)oc2cc(O)cc(O)c12` [Quercetin], for which the Km with PsAOMT came to 4.33 µM.

`OC[C@H]1O[C@@H](Oc2cc3c(O)cc(O)cc3[o+]c2-c2cc(O)c(O)c(O)c2)[C@H](O)[C@@H](O)[C@@H]1O` [Dp3G, Delphinidin 3-O-glucoside]: in the test on PsAOMT, the Km came out at 4.11 µM.

On to `C[C@@H]1O[C@@H](OC[C@H]2O[C@@H](Oc3c(-c4ccc(O)c(O)c4)oc4cc(O)cc(O)c4c3=O)[C@H](O)[C@@H](O)[C@@H]2O)[C@H](O)[C@H](O)[C@H]1O` [Qu3R, Quercetin 3-O-rutinoside], for which the Km with PsAOMT came to 12.3 µM.

For the molecule `OC[C@H]1O[C@@H](Oc2cc3c(O[C@@H]4O[C@H](CO)[C@@H](O)[C@H](O)[C@H]4O)cc(O)cc3[o+]c2-c2ccc(O)c(O)c2)[C@H](O)[C@@H](O)[C@@H]1O` [Cy3G5G, Cyanidin 3,5-di-O-glucoside], the figures for the Km in the test with PsAOMT and in the test on PtAOMT were 1.06 µM and 8.51 ± 1.39 µM, respectively.

On to `OC[C@H]1O[C@@H](Oc2cc3c(O)cc(O)cc3[o+]c2-c2ccc(O)c(O)c2)[C@H](O)[C@@H](O)[C@@H]1O` [Cy3G, Cyanidin 3-O-glucoside], for which the Km with PsAOMT came to 1.76 µM; in the test on PtAOMT, 3.53 ± 0.31 µM.

As for `O=c1cc(-c2ccc(O)c(O)c2)oc2cc(O[C@@H]3O[C@H](CO)[C@@H](O)[C@H](O)[C@H]3O)cc(O)c12` [Lu7G, Luteolin 7-O-glucoside], the Km with PsAOMT was 146 µM.
